The test system of test [1] is CASOB (Cassia obtusifolia, sicklepod). Put plainly: Post-emergence herbicidal activity of mixtures in forage crops, greenhouse (Example IV). The class given is in vivo, Cassia obtusifolia L. As to conditions: Table 58 (forage), foliar-applied, after approximately 21 days. The method, then: Seeds or root cuttings of the desired test plant species were planted in Sun Gro MetroMix® 306 planting mixture, which typically has a pH of 6.0 to 6.8 and an organic matter content of about 30 percent, in plastic pots with a surface area of 126.6 square centimeters (cm^2). When required to ensure good germination and healthy plants, a fungicide treatment and/or other chemical or physical treatment was applied. The plants were grown for 14-60 days in a greenhouse with an approximate 14 hour photoperiod which was maintained at approximately 28° C. during the day and 24° C. during the night. Nutrients and water were added on a regular basis and supplemental lighting was provided with overhead metal halide 1000-Watt lamps as necessary. The plants were employed for testing when they reached the BBCH13 to BBCH23 leaf stage.
Treatments consisted of the benzyl ester of 4-amino-3-chloro-5-fluoro-6-(4-chloro-2-fluoro-3-methoxy-phenyl)pyridine-2-carboxylic acid (Compound A), formulated as a SC, and a second herbicide alone and in combination.
A measured aliquot of Compound A was placed in 25 milliliter (mL) glass vial and diluted in a volume of 1.25% (v/v) Agri-dex crop oil concentrated to obtain stock solutions. Compound requirements are based upon a 12 mL application volume at a rate of 187 liters per hectare (L/ha). Spray solutions of the second cereal herbicide and experimental compound mixtures were prepared by adding the stock solutions to the appropriate amount of dilution solution to form 12 mL spray solution with active ingredients in two- and three-way combinations. […]
The treated plants and control plants were placed in a greenhouse as described above and watered by sub-irrigation to prevent wash-off of the test compounds. After approximately 21 days, the condition of the test plants, as compared with that of the control plants, was determined visually and scored on a scale of 0 to 100 percent where 0 corresponds to no injury and 100 corresponds to complete kill. […]

Test [2] has as its system SCPJU (Schoenoplectus juncoides, Japanese bulrush). Put plainly: Postemergence foliar-applied weed control, direct seeded rice, greenhouse (Example I). As to conditions: 21 DAA. It counts as in vivo, Schoenoplectus juncoides (Roxb.) Palla. An excerpt:
Seeds or nutlets of the desired test plant species were planted in a soil matrix prepared by mixing a loam or sandy loam soil (e.g., 28.6 percent silt, 18.8 percent clay, and 52.6 percent sand, with a pH of about 5.8 and an organic matter content of about 1.8 percent) and calcareous grit in an 80 to 20 ratio. The soil matrix was contained in plastic pots with a volume of 1 quart and a surface area of 83.6 square centimeters (cm^2). When required to ensure good germination and healthy plants, a fungicide treatment and/or other chemical or physical treatment was applied. The plants were grown for 8-22 days in a greenhouse with an approximate 14 h photoperiod which was maintained at about 29° C. during the day and 26° C. during the night. Nutrients (Peters Excel® 15-5-15 5-Ca 2-Mg and iron chelate) were applied in the irrigation solution as needed and water was added on a regular basis. Supplemental lighting was provided with overhead metal halide 1000-Watt lamps as necessary. The plants were employed for testing when they reached the first through fourth true leaf stage.
Treatments consisted of the acid or esters of 4-amino-3-chloro-5-fluoro-6-(4-chloro-2-fluoro-3-methoxy-phenyl)pyridine-2-carboxylic acid (Compound A), each formulated as an SC, and various herbicidal components alone and in combination. Forms of compound A were applied on an acid equivalent basis. […]
Treatment requirements were calculated based upon the rates being tested, the concentration of active ingredient or acid equivalent in the formulation, and a 12 mL application volume at a rate of 187 L/ha.
For treatments comprised of formulated compounds, measured amounts of compounds were placed individually in 25 mL glass vials and diluted in a volume of 1.25% (v/v) Agri-Dex® crop oil concentrated to obtain 12× stock solutions. […]
For treatments comprised of formulated and technical compounds, weighed amounts of the technical materials were placed individually in 25 mL glass vials and dissolved in a volume of 97:3 v/v acetone/DMSO to obtain 12× stock solutions, and measured amounts of the formulated compounds were placed individually in 25 mL glass vials and diluted in a volume of 1.25% (v/v) crop oil concentrate to obtain 12× stock solutions. […]

As to `COc1c(Cl)ccc(-c2nc(C(=O)OCc3ccccc3)c(Cl)c(N)c2F)c1F` [Compound A Benzyl Ester], the “Weed Control CASOB Obs” value was 33% in test [1] (2.2 gai/ha alone) and 38% in test [1] (4.4 gai/ha alone). Besides, in test [2] (4.38 gae/ha), the “Visual Weed Control (%) Obs” value was determined as 40%.

`COCC(=O)OC(c1ncccc1S(=O)(=O)NC(=O)Nc1nc(OC)cc(OC)n1)C(C)F` (stereo not drawn) [Flucetosulfuron, 1-[3-[[[[(4,6-dimethoxy-2-pyrimidinyl)amino]carbonyl]amino]sulfonyl]-2-pyridinyl]-2-fluoropropyl 2-methoxyacetate]: the “Visual Weed Control (%) Obs” value is reported as 95% in test [2] (0.05 gai/ha), 50% in test [2] (0.1 gai/ha) and 30% in test [2] (0.2 gai/ha).

(Values after patent publication US8871681B2, “Herbicidal compositions comprising 4-amino-3-chloro-5-fluoro-6-(4-chloro-2-fluoro-3-methoxyphenyl) pyridine-2-carboxylic acid or a derivative thereof and certain sulfonylureas” (Dow AgroSciences LLC, priority 2012, dated 2014).)
